IC50 data for one compound are collected here from patent US20180290977A1, “KDM4 INHIBITORS” (Albert-Ludwigs-University Freiburg, priority 2017, published 2018).

The target of one assay is KDM6B (Homo sapiens, UniProt O15054). In words: KDM demethylase inhibition (IC50). The assay is classed as biochemical.
The target in the next assay is T1, KDM4C (Homo sapiens, UniProt Q9H3R0).
T1 sequence (Q9H3R0 1-1056): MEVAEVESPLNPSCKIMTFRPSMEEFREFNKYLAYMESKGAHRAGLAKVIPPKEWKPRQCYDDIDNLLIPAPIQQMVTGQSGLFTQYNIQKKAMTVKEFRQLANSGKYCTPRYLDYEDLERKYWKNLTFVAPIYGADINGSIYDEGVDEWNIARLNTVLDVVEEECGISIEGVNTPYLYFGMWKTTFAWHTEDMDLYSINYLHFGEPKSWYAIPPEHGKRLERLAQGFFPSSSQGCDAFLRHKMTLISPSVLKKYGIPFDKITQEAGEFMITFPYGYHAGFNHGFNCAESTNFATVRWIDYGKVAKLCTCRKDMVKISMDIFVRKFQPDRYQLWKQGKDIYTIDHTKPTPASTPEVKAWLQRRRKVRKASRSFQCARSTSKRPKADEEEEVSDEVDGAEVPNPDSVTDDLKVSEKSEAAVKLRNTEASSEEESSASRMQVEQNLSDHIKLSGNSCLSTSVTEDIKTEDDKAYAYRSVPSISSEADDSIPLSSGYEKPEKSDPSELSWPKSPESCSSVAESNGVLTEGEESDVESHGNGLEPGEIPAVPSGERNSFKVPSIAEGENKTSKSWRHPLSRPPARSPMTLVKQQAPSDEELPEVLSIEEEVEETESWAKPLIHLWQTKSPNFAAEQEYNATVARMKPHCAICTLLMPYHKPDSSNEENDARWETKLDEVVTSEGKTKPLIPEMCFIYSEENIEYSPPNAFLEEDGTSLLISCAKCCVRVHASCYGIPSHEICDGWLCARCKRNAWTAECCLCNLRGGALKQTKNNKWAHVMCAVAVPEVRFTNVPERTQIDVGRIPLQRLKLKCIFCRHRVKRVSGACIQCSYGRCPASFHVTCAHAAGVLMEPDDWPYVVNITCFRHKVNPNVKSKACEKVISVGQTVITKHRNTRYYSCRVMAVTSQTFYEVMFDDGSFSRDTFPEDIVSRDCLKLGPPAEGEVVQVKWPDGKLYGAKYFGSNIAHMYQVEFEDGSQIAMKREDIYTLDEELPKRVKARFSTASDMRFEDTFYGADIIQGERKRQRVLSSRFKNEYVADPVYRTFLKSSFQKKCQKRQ
Put plainly: KDM demethylase inhibition (IC50). The assay is classed as biochemical.

Where two headings read alike, the source gives them in different places. Some results are limits rather than exact numbers.

Sequence of KDM6B (O15054 whole entry): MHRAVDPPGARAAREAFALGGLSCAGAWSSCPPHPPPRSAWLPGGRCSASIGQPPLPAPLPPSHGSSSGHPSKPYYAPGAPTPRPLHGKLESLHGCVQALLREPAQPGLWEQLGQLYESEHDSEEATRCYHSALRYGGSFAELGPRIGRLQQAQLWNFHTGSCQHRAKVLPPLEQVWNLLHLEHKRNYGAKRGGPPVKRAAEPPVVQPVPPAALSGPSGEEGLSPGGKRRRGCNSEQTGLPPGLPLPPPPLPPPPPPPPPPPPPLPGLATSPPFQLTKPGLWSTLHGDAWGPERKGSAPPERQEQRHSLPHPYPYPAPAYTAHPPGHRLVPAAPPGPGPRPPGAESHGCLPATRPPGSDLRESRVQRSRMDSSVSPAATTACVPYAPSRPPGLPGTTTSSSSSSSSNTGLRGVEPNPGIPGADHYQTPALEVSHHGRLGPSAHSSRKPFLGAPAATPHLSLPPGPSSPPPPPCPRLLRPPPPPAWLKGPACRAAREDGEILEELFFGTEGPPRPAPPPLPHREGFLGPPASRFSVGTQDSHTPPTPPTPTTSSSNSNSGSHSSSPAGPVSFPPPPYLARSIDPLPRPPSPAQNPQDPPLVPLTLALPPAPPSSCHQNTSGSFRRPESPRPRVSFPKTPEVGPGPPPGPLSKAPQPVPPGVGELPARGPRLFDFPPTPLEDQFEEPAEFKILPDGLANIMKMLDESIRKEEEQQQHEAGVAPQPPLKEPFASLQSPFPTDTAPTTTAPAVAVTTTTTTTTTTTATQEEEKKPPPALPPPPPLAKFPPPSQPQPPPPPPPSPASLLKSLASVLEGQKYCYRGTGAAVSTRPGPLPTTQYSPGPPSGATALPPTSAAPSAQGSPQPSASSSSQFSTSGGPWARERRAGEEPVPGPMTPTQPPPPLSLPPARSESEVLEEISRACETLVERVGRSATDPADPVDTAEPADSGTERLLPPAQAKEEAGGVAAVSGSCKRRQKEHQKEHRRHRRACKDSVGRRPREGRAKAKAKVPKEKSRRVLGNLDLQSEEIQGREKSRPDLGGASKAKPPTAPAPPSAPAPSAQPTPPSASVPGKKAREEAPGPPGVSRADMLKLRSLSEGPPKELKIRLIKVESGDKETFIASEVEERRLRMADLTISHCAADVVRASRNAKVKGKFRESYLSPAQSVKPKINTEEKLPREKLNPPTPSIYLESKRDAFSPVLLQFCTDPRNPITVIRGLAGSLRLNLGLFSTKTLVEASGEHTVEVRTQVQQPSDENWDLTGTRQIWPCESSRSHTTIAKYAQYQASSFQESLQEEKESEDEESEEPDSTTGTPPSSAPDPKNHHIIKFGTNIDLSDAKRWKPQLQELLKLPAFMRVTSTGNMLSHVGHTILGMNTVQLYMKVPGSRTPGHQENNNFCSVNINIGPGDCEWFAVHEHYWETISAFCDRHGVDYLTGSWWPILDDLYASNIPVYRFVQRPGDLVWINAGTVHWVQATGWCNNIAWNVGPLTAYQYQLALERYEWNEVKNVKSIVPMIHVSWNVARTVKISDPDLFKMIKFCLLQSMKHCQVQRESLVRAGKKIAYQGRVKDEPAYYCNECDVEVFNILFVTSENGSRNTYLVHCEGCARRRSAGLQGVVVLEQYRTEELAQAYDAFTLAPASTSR

On to `CN(c1ccccc1)c1ccc2c(c1)CCC[C@H]2CNc1cnccc1C(=O)O` [Compound I, 3-({[(1R)-6-[methyl(phenyl)amino]-1,2,3,4-tetrahydronaphthalen-1-yl]methyl}amino)pyridine-4-carboxylic Acid], for which the IC50 was over 10000 nM at KDM6B; 35 nM at KDM4C (read-out: Compound I IC50); under 105 nM at KDM4C (read-out: IC50, demethylase activity).

Broadly, the IC50 is the concentration at which inhibition is half-maximal.
